Laboratory results: EP4810052A2, “HCRHR2 SELECTIVE POLYPEPTIDES” (Gubra A/S, priority 2023, dated 2026)
Like-named read-outs stand apart in the source and are kept apart here. Marks after values point to notes of the source that are not given here. Starred links: 1 amine or outer side, 2 acyl side, 3 side chain; linkers in the order of their positions; H or OH if unused. Non-standard residues stand in square brackets, D forms with d. Residues, ends and D or L forms follow the SMILES beside them. Groups on a side chain read outwards from the residue. *: point of attachment. C20 diacid = O=C(O)CCCCCCCCCCCCCCCCCCC(=O)*; γGlu = O=C(O)[C@H](CCC(=O)[*:2])N[*:1]; NMeI = CC[C@H](C)[C@H](NC)C(=O)O; AEEA = NCCOCCOCC(=O)O; Aib = CC(C)(N)C(=O)O

What was measured:
hCRHR2 = target: T1, hCRHR2 (Homo sapiens, UniProt Q13324); assay: HTRF cAMP assay, determination of hCRHR2 potency (peptide libraries 5 conc., purified peptides 11 conc.); assay type: cell-based
T1 sequence (Q13324 1-411): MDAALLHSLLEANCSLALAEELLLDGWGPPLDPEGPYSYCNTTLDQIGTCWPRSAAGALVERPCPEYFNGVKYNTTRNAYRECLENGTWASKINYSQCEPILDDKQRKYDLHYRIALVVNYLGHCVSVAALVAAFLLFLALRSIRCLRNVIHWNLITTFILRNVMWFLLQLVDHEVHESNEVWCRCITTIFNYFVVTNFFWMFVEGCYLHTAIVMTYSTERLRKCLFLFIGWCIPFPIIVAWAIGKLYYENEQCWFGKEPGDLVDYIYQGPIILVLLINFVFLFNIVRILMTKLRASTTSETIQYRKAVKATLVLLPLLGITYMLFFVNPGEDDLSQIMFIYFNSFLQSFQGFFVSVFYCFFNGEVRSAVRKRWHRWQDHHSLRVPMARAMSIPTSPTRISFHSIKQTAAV
Outline: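 CHO-K1 cells stably expressing human CRHR2, thawed from frozen stocks just before use and run in suspension; cAMP measured by competitive HTRF immunoassay (cryptate anti-cAMP, d2-cAMP). Agonist peptides tested at 5 (libraries) or 11 (purified) concentrations; EC50 from sigmoid variable-slope nonlinear regression.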

[1] = Thioflavin T fibril formation assay of purified peptides; assay type: physicochemical; design: key: Amyloid fibril formation detected by an increase in ThT fluorescence was denoted with "Yes"; samples without increasing ThT fluorescence hence not forming amyloid fibrils were denoted "No"
Outline: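 Compounds at 200 µM in 50 mM phosphate buffer at the stated pH values, or at 200 µM in semaglutide drug product adjusted to pH 7.4, with 4 µM ThT final. Fibrillation followed as ThT fluorescence (ex 450/em 480 nm) over 96 h at 40°C, with 5 min shaking at 700 rpm alternating with 5 min rest; triplicates.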

PK in rats = assay type: in vivo; design: T½ / MRT: unit not given here; settings: for MRT / T½ / clearance / half-life / Cmax / Tmax: Rat; for clearance / half-life / Cmax / Tmax / bioavailability: male, in vivo; for clearance / half-life / Cmax / Tmax: Sprague Dawley (RJHan:SD); for half-life: read-out: T½ (converted); for bioavailability: Sprague Dawley, rat
Outline: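 Lean male Sprague Dawley rats (n = 3 per group) got a two-peptide combination at 50 nmol/kg IV and SC. Plasma was sampled from 0.17 to 96 h post dose and analysed by LC-MSMS. PK parameters came from non-compartmental analysis.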

[2] = Effect on acute food intake in mice; assay type: in vivo; settings: single subcutaneous dose
Method: Male NMRI mice were obtained from JanVier (JanVier Labs, France) at 5 weeks of age. The animals were group-housed 4 mice pr. cage under a 12/12 h dark-light cycle, light off at 1 PM. Room temperature was controlled to 22°C ± 1°C, with 60 % ± 20% humidity. Animals had ad libitum access to regular rodent chow (Altromin 1324, Brogaarden, Denmark) and tap water.
Animals were transferred 5-7 days before the start of the study to a real-time food intake monitoring system, HM-2 system (MBRose, Denmark) to allow acclimatization to experimental conditions. As the animals were uniquely identified with microchips, each individual animal was identified by its microchip upon entry and exit from the food channel. Randomization of the mice for each study group (n=7-8) was based on body weight measured the day before the start of the study. A vehicle-treated group was included in each experiment. Six hours before the start of the dark phase, animals were fasted. One hour before the dark phase, animals were dosed once subcutaneously with test peptide. Food intake was reported hourly for a period of 72 hours. The percentage of food intake reduction was normalized to average food intake from the vehicle group. Statistical significance was evaluated using One-way analysis of variance with Dunnett's multiple comparison test. P < 0.05 was considered statistically significant.
Selected compounds were tested according to the general procedure on acute food intake in mice to determine the effect of a single subcutaneous dose on food intake in mice over 3 days.

[3] = purified peptides, CHO-K1 cells stably expressing hCRHR2, cAMP HTRF, read-out: hCRHR2 EC50

| Compound | Selectivity ratio (hCRHR1/ hCRHR2) (hCRHR2; hCRHR1-EC50/hCRHR2-EC50) | EC50 (hCRHR2; [3]) [nM] | Fibrillation (pH 7.5) ([1]; pH 7.5, ThT assay) | MRT (PK in rats) | T½ (PK in rats) | clearance (PK in rats; iv, 50 nmol/kg i.v.) [mL/min/kg] | half-life (PK in rats; iv, 50 nmol/kg i.v.) [h] | Cmax (PK in rats; sc, 50 nmol/kg s.c.) [nM] | Tmax (PK in rats; sc, 50 nmol/kg s.c.) [h] | half-life (PK in rats; sc, 50 nmol/kg s.c.) [h] | bioavailability (PK in rats; sc) [%] | % FI compared to vehicle, 24 h post-dosing ([2]; 30 nmol/kg) | % FI compared to vehicle, 24 h post-dosing ([2]; 100 nmol/kg) | % FI compared to vehicle, 24 h post-dosing ([2]; 300 nmol/kg) | Solubility pH 7.5, target conc. =10 mg/mL (measured mg/mL) (pH 7.5) [mg/mL] | further results |
| --- | --- | --- | --- | --- | --- | --- | --- | --- | --- | --- | --- | --- | --- | --- | --- | --- |
| CC[C@H](C)[C@H](NC)C(=O)N[C@H](C(=O)N[C@@H](CC(C)C)C(=O)N[C@@H](CO)C(=O)N[C@@H](CC(C)C)C(=O)N[C@@H](CC(=O)O)C(=O)N[C@H](C(=O)N1CCC[C@H]1C(=O)N[C@H](C(=O)NCC(=O)N[C@@H](CC(C)C)C(=O)N[C@@H](CC(C)C)C(=O)N[C@@H](CCC(N)=O)C(=O)N[C@H](C(=O)N[C@@H](CC(C)C)C(=O)N[C@@H](CC(C)C)C(=O)N[C@@H](CCC(=O)O)C(=O)N[C@@H](CCC(N)=O)C(=O)N[C@@H](C)C(=O)N[C@@H](CCCNC(=N)N)C(=O)N[C@@H](C)C(=O)N[C@@H](CCCNC(=N)N)C(=O)N[C@@H](C)C(=O)N[C@@H](C)C(=O)N[C@@H](CCCNC(=N)N)C(=O)N[C@@H](CCC(=O)O)C(=O)N[C@@H](CCC(N)=O)C(=O)N[C@@H](C)C(=O)N[C@H](C(=O)N[C@@H](CCCCNC(=O)COCCOCCNC(=O)COCCOCCNC(=O)CC[C@H](NC(=O)CC[C@H](NC(=O)CCCCCCCCCCCCCCCCCCC(=O)O)C(=O)O)C(=O)O)C(=O)N[C@@H](CC(N)=O)C(=O)N[C@@H](C)C(=O)N[C@@H](CCC(=O)O)C(=O)N[C@H](C(=O)N[C@@H](CC(C)C)C(=O)N[C@@H](C)C(=O)N[C@@H](CCC(=O)O)C(=O)N[C@H](C(N)=O)C(C)C)[C@@H](C)CC)[C@@H](C)O)[C@@H](C)CC)[C@@H](C)CC)C(C)C)C(C)C [SEQ ID NO: 6] (H-[NMeI]VLSLDVPIGLLQILLEQARARAAREQATK([AEEA-AEEA-γGlu-γGlu-C20 diacid])NAEILAEV-NH2) | >1852 | 2.7 | No | 7.4 | 6.1 | 0.15 | 6.1 | 70 | 24 | 8.4 | 35 | 51.61*** % | 25.76*** % | 12.69*** % | – | EC50 (hCRHR2; stable cell system, Table 10, read-out: Stable EC50 (nM) hCRHR 2a): 3 nM; Amyloid fibril formation + semaglutide (Ozempic®), pH 7.4 ([1]; 200 µM compound dissolved in semaglutide drug product, pH 7.4, listed as None = drug product alone): No; Amyloid fibril formation pH 7.0 ([1]; 200 µM in 50 mM phosphate buffer, pH 7.0): No; Amyloid fibril formation pH 7.5 ([1]; 200 µM in 50 mM phosphate buffer, pH 7.5): No; Amyloid fibril formation pH 8.0 ([1]; 200 µM in 50 mM phosphate buffer, pH 8.0): No; Solubility pH 6.5 (mg/ml) (pH 6.5): 21.1 mg/ml; Solubility pH 7.0 (mg/mL) (pH 7): 20.0 mg/mL; Solubility pH 7.5 (mg/mL) (pH 7.5): 18.7 mg/mL; Solubility pH 7.5 + phenol (mg/mL) (pH 7.5): 18.1 mg/mL |
| CC[C@H](C)[C@H](N)C(=O)N[C@H](C(=O)N[C@@H](CC(C)C)C(=O)N[C@@H](CO)C(=O)N[C@@H](CC(C)C)C(=O)N[C@@H](CC(=O)O)C(=O)N[C@H](C(=O)N1CCC[C@H]1C(=O)N[C@H](C(=O)NCC(=O)N[C@@H](CC(C)C)C(=O)N[C@@H](CC(C)C)C(=O)N[C@@H](CCC(N)=O)C(=O)N[C@H](C(=O)N[C@@H](CC(C)C)C(=O)N[C@@H](CC(C)C)C(=O)N[C@@H](CCC(=O)O)C(=O)N[C@@H](CCC(N)=O)C(=O)N[C@@H](C)C(=O)N[C@@H](CCCNC(=N)N)C(=O)N[C@@H](C)C(=O)N[C@@H](CCCNC(=N)N)C(=O)N[C@@H](C)C(=O)N[C@@H](C)C(=O)N[C@@H](CCCNC(=N)N)C(=O)N[C@@H](CCC(=O)O)C(=O)N[C@@H](CCC(N)=O)C(=O)N[C@@H](C)C(=O)N[C@@H](CCCCNC(=O)COCCOCCNC(=O)COCCOCCNC(=O)CC[C@H](NC(=O)CC[C@H](NC(=O)CCCCCCCCCCCCCCCCCCC(=O)O)C(=O)O)C(=O)O)C(=O)NC(C)(C)C(=O)N[C@@H](CC(N)=O)C(=O)N[C@@H](C)C(=O)N[C@@H](CCC(=O)O)C(=O)N[C@H](C(=O)N[C@@H](CC(C)C)C(=O)N[C@@H](C)C(=O)N[C@@H](CCC(=O)O)C(=O)N[C@H](C(N)=O)C(C)C)[C@@H](C)CC)[C@@H](C)CC)[C@@H](C)CC)C(C)C)C(C)C [SEQ ID NO: 19] (H-IVLSLDVPIGLLQILLEQARARAAREQAK([AEEA-AEEA-γGlu-γGlu-C20 diacid])[Aib]NAEILAEV-NH2) | >3125 | 1.6 | No | 7.4 | 5.9 | – | – | – | – | – | – | 56.47*** % | 29.68*** % | 21.66*** % | 9.6 | – |
| CC[C@H](C)[C@H](N)C(=O)N[C@H](C(=O)N[C@@H](CC(C)C)C(=O)N[C@@H](CO)C(=O)N[C@@H](CC(C)C)C(=O)N[C@@H](CC(=O)O)C(=O)N[C@H](C(=O)N1CCC[C@H]1C(=O)N[C@H](C(=O)NCC(=O)N[C@@H](CC(C)C)C(=O)N[C@@H](CC(C)C)C(=O)N[C@@H](CCC(N)=O)C(=O)N[C@H](C(=O)N[C@@H](CC(C)C)C(=O)N[C@@H](CC(C)C)C(=O)N[C@@H](CCC(=O)O)C(=O)N[C@@H](CCC(N)=O)C(=O)N[C@@H](C)C(=O)N[C@@H](CCCNC(=N)N)C(=O)N[C@@H](C)C(=O)N[C@@H](CCCNC(=N)N)C(=O)N[C@@H](C)C(=O)N[C@@H](C)C(=O)N[C@@H](CCCNC(=N)N)C(=O)N[C@@H](CCC(=O)O)C(=O)N[C@@H](CCC(N)=O)C(=O)N[C@@H](C)C(=O)N[C@@H](CCCCNC(=O)COCCOCCNC(=O)COCCOCCNC(=O)CC[C@H](NC(=O)CC[C@H](NC(=O)CCCCCCCCCCCCCCCCCCC(=O)O)C(=O)O)C(=O)O)C(=O)N[C@H](C(=O)N[C@@H](CC(N)=O)C(=O)N[C@@H](C)C(=O)N[C@@H](CCC(=O)O)C(=O)N[C@H](C(=O)N[C@@H](CC(C)C)C(=O)N[C@@H](C)C(=O)N[C@@H](CCC(=O)O)C(=O)N[C@H](C(N)=O)C(C)C)[C@@H](C)CC)[C@@H](C)O)[C@@H](C)CC)[C@@H](C)CC)C(C)C)C(C)C [SEQ ID NO: 3] (H-IVLSLDVPIGLLQILLEQARARAAREQAK([AEEA-AEEA-γGlu-γGlu-C20 diacid])TNAEILAEV-NH2) | >4546 | 1.1 | No | 9.2 | 7.7 | 0.0833 | 7.7 | 90 | 24 | 7.9 | 27 | 67.63*** % | 30.75*** % | 30.66*** % | 10 | EC50 (hCRHR2; Table 3, matched molecular pairs X^38 L vs Nle, peptide library of Example 4, read-out: hCRHR2 pEC50 (converted)): 0.501 nM; Selectivity ratio (hCRHR1/ hCRHR2) (hCRHR2; Table 5): >4546; Fibrillation (pH 7.5) ([1]; pH 7.5): No; Solubility pH 7.5, target conc. =5 mg/mL (measured mg/mL) (pH 7.5): 4.5 mg/mL |
